From patent publication US12416008B2, “Compositions and methods of use for small-molecule regulation of CRISPR-Cas9 activity using RNA aptamers” (priority 2019, dated 2025)
Marks after values point to notes of the source that are not given here.

Experiments:
[1] = system: galK (site 1) and xylA (site 2); test: multiplexed gene editing with theophylline-regulated GU19-agRNA and 3MX-regulated A9-agRNA on one plasmid; type: cell-based, E. coli; settings: 3-hour induction with 1 mM of a single ligand
Procedure: A plasmid was designed that expressed a theophylline-regulated GU19-agRNA targeting galK1 and a 3-methylxanthine (3MX)-regulated A9-agRNA targeting the xylA gene. […] The plasmid construct was then used for a 3-hour induction with either 1 mM theophylline, 1 mM 3MX or a combination of the two and the transformed bacteria were plated on MacConkey agar that contained either galactose, xylose or both to assay editing of the galK and xylA genes with the red/white screen (FIG. 3D, FIG. 11).
For the purpose of first adding theophylline and later 3MX to independently induce two different agRNAs, the protocol was slightly modified. First, the bacteria were prepared and transformed as in the original protocol, 1 mM theophylline was added to the media and the culture was shaken at 30° C. for three hours. Then, the culture was heat-shocked again at 42° C. for 15 minutes to induce expression of the lambda-red proteins again and 1 mM 3MX was added to the media. The culture was shaken at 37° C. for three hours and then plated.

[2] = system: MGλ9 strain; test: transformation and editing efficiency, agRNAs activated with theophylline 1 hour after transformation (aptamer-protocol); type: cell-based, E. coli; settings: theophylline added 1 hour after transformation; for increase in number of transformants: versus wt gRNA
Procedure: FIGS. 3A-3D show aptamer-gRNAs enable high-throughput genome editing. FIG. 3A is a schematic showing the workflow of the aptamer-controlled gene editing. […] CFUs are colony forming units μg-1 DNA and per 4 mL of recovery media. […] Each dot represents a biological replicate and error bars indicate standard deviation from the mean. FIG. 3C is a schematic of the plasmid design used to enable multiplexed gene editing. The individual homology arms and agRNAs are identical to the ones previously described for the single-edit experiments. […] The values represent the average of three biological replicates.
Equipped with temporally controllable agRNAs, the gene editing technology CREATE^10 was optimized. One major drawback of CRISPR-mediated bacterial gene editing technologies is cell death caused by dsDNA cuts^10, despite overexpression of λ-red proteins to increase the frequency of homologous repair. Without wishing to be bound by theory, it is hypothesized that the stress of transformation combined with rapid generation of dsDNA breaks synergistically leads to a high level of cell death. […] Although a low transformation efficiency is not a significant issue when creating a single edit with a defined sgRNA, it dramatically impacts the ability to transform a library of sgRNA plasmids to generate a population of bacteria with different edits. In this process, a portion of gRNAs from the library is expected to be non-functional due to errors in oligonucleotide synthesis, sgRNA misfolding, or inefficient targeting.
LB containing kanamycin and chloramphenicol was inoculated with MGλ9 cells and grown overnight at 30° C. The stationary culture was diluted 100 fold in LB, containing chloramphenicol and kanamycin and grown to an OD600=0.4-0.6 in 25 mL LB. Then, the culture was washed in two volumes of ice-cold deionized water, resuspended in 500 μl deionized water and 50 μl of the cell suspension was electroporated with 200 ng of a CREATE plasmid that encodes gRNA and homology template. The transformants were recovered in 4 mL of LB, containing 0.2% arabinose and shaken at 30° C. for 1 hour. The culture was heat-shocked in a shaking waterbath at 42° C. for 15 minutes and 1 mM theophylline or 1 μM ATC was added to the culture. The culture was shaken at 37° C. for 3 hours before plating on MacConkey Agar. To estimate the number of cfu, aliquots were plated on LB agar 1 hour after transformation.

[3] = system: alternative sites at the galK gene; test: editing at three more alternative sites at the galK gene; type: cell-based, E. coli; settings: with or without 1 mM theophylline
Procedure: (§1) Promising agRNA constructs were analyzed in further detail. […] The xylA gene was targeted with these 17 agRNAs to test whether a different spacer sequence affects the performance. Editing was quantified with the same red/white screen. […] To confirm sequence independence of those two agRNAs, they were used to edit three more alternative sites at the galK gene. […] Sequencing confirmed that the phenotypic change in the assay corresponded to a designed genomic edit (FIG. 7). The observation that a number of agRNAs only act at the selected galK1 site highlights that the CRISPR-Cas9 system can be selected to act at a single sequence, a feature that could be exploited for reducing off-target effects.
(§2) In order to assess the frequency of gene editing, a red/white screen was used to visualize the introduction of a stop codon into the galK gene by CREATE. The original CREATE protocol was used for inducing gene editing and after 3 hours of recovery (with or without the agRNA ligand) a series of dilutions of the cultures were plated on MacConkey Agar plates containing 1% galactose. […] The editing efficiency could be calculated by dividing the number of edited colonies over the total number of colonies. By comparing the editing efficiency in presence versus absence of the ligand, a dynamic range of the in vivo activity could be determined.

[4] = system: galK1 site; test: co-transformation of targeting gRNA plasmid with non-targeting gRNA plasmid (simulated library); settings: for # of unedited colonies carrying non-targeting gRNA plasmid: 16 unedited colonies picked, 20 ng non-targeting + 180 ng targeting plasmid, 1 mM theophylline
[5] = biological target: T1, Streptococcus pyogenes Cas9 (Streptococcus pyogenes serotype M1, UniProt Q99ZW2); test: electrophoretic mobility shift assay (EMSA) of Cas9 binding to gRNAs; settings: presence or absence of 250 μM theophylline
T1 construct: host or cells: E. coli BL21 (DE3) Rosetta

[6] = system: galK 1 site; test: red/white colony screen of editing efficiency at the galK 1 site (CREATE recombineering); type: cell-based, E. coli MG1655; settings: for Editing Efficiency 1 mM Theo: induced for 3 hours with 1 mM theophylline; for Editing Efficiency no Theo: no theophylline, 3 hours recovery
Procedure: Candidates from this enriched library were analyzed to inform an improved library design. After three selection/counterselection steps, cells were plated on M63 selection medium^20 and 150 colonies were picked. Each isolated candidate was then transformed into unedited E. coli to screen for theophylline-responsive constructs using a red/white colony assay to quantify the percentage of edited bacteria. Colonies with an unedited galK site appear red whereas edited colonies appear white (FIG. 5). The percentage of white colonies is considered the editing efficiency. Gene editing was induced as previously described with or without adding theophylline and the editing efficiencies were compared.
The protocol established by Garst et al was mainly followed. LB containing kanamycin and chloramphenicol was inoculated with MGλ9 cells and grown overnight at 30° C. The stationary culture was diluted 100 fold in LB, containing chloramphenicol, kanamycin and 0.2% arabinose and grown to an OD600=0.4-0.6 in 25 mL LB. The culture was heat-shocked in a shaking waterbath at 42° C. for 15 minutes to induce expression of the lambda-red proteins from pSIM5. Then, the culture was washed in two volumes of ice-cold deionized water, resuspended in 500 μl deionized water and 50 μl of the cell suspension was electroporated with 200 ng of a CREATE plasmid that encodes gRNA and homology template. The transformants were recovered in 4 mL of LB, containing 0.2% arabinose and optionally 1 mM theophylline or 1 μM anhydrotetracycline (ATC), and shaken at 37° C. for 3 hours before plating on MacConkey Agar. To estimate the number of cfu, aliquots were plated on LB agar 1 hour after transformation.
In order to assess the frequency of gene editing, a red/white screen was used to visualize the introduction of a stop codon into the galK gene by CREATE. The original CREATE protocol was used for inducing gene editing and after 3 hours of recovery (with or without the agRNA ligand) a series of dilutions of the cultures were plated on MacConkey Agar plates containing 1% galactose. Bacterial colonies with a mutated galK* site appear white on the plates, whereas non-edited colonies appear red. The editing efficiency could be calculated by dividing the number of edited colonies over the total number of colonies. By comparing the editing efficiency in presence versus absence of the ligand, a dynamic range of the in vivo activity could be determined.
When screening the enriched libraries for switchable constructs, the transformants were recovered in 4 mL of LB broth, a dilution series was plated for every construct and the experiment was only carried out once due to the large volume of colonies screened (˜250 in total). When the constructs A9 and GU19 were characterized in detail, triplica of the experiment were carried out.

[7] = system: xylA gene; test: red/white screen of editing at the xylA gene; type: cell-based, E. coli; settings: 1 mM theophylline
Procedure: as §1, §2

[8] = biological target: isolated aptamer (theophylline aptamer); settings: theophylline binding; cited from earlier work
[9] = system: galK 1 site; test: red/white colony screen of editing efficiency at the galK 1 site (CREATE recombineering); type: cell-based, E. coli MG1655; settings: galK1 site; agRNAs A9 and GU19 (FIG. 2A)
[10] = plasmid mixture 90% targeting galK1, 10% non-targeting (eGFP) gRNA
[11] = 9:1 targeting:non-targeting mixture

T1 sequence (Q99ZW2 whole entry): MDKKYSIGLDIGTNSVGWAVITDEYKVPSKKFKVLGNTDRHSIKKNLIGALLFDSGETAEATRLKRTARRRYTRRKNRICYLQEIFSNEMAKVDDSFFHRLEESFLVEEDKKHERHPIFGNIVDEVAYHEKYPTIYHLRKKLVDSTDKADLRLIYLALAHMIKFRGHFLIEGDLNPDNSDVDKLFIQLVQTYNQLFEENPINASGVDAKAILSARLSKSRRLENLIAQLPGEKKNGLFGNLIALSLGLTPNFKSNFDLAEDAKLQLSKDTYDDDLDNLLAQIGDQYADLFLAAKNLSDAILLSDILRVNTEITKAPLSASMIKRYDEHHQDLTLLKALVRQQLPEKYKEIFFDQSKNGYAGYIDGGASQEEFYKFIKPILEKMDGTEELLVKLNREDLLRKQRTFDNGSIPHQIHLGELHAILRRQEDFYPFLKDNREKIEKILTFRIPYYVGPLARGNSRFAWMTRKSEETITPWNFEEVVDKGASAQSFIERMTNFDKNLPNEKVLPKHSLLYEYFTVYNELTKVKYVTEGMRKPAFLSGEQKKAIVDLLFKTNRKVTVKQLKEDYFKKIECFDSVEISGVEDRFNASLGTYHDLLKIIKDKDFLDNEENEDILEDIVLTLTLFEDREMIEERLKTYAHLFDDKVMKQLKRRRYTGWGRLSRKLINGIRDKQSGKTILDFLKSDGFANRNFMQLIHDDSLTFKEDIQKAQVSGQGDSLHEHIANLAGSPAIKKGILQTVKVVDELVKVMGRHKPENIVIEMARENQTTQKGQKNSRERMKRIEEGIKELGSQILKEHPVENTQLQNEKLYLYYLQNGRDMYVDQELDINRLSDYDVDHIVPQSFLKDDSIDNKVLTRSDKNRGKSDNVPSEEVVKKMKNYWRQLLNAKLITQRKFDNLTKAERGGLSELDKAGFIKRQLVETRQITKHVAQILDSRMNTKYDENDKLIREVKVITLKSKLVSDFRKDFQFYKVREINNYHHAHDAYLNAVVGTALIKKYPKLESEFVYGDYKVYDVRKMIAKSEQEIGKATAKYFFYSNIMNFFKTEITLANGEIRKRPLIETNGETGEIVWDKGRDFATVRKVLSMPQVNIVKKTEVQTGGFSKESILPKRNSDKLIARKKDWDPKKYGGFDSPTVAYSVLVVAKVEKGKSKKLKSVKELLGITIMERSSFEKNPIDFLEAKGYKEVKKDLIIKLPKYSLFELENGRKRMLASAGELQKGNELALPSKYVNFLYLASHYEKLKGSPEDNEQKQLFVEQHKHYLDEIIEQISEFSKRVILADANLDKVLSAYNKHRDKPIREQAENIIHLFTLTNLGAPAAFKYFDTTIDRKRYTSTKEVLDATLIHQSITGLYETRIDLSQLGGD

Row | Compound | editing of galK and xylA upon induction (in words) [1] | editing efficiencies [2] | increase in number of transformants [2] | targetability of alternative galK sites (in words) [3] | # of unedited colonies carrying non-targeting gRNA plasmid [4] | percentage of edited cells [4, 10] | apparent binding affinity to the Cas9 protein [5] | Editing Efficiency 1 mM Theo [6] | Editing Efficiency no Theo [6] | editing efficiency at xylA compared with galK1 (in words) [7] | also measured
1 | Cn1c(=O)[nH]c(=O)c2nc[nH]c21 [3MX, 3-methylxanthine] | induced mostly editing of xylA and to a lesser extent galK | – | – | – | – | – | – | – | – | – | –
2 | A9: agRNA cassette TGAAGGCCGCAACA, SEQ ID NO: 5 (chemistry not given here) | – | ~80% | 10^4 fold | Only one of those sites was not targetable | 9/16 | 81% | the same apparent binding affinity to the Cas9 protein as the wild type gRNA, independent of theophylline | 81%** | 9%** | editing efficiency at xylA similar to the galK1 site used during selection | –
3 | A1: agRNA cassette GGGGGGCCTATTTT, SEQ ID NO: 8 (expressed or natural sequence) | – | – | – | – | – | – | the same apparent binding affinity to the Cas9 protein as the wild type gRNA, independent of theophylline | 66% | 0% | – | –
4 | GU19: agRNA cassette GATCGGCCATAGAT, SEQ ID NO: 51 (chemistry not given here) | – | ~80% | 10^4 fold | more site-dependent, but also showed less background activity | 6/16 | 63% | the same apparent binding affinity to the Cas9 protein as the wild type gRNA, independent of theophylline | 64%** | 3%** | editing efficiency at xylA similar to the galK1 site used during selection | –
5 | sgRNA: wild-type single guide RNA; cassette AGAGCTAGCAAGTT, SEQ ID NO: 1 (chemistry not given here) | – | – | – | – | 16/16 | – | – | 89%** | 85%** | – | plated bacteria carrying the non-targeting plasmid [4, 11]: 84.8%; plated bacteria expected to carry the targeting CREATE plasmid [4, 11]: 15.2%; enrichment of the non-targeting plasmids ([4]; listed as wild type gRNA): 8.6±0.1 fold; enrichment of the non-targeting plasmids ([4]; listed as wt sgRNA): ~8.5 fold; percentage of edited cells ([4]; plasmid mixture 90% targeting galK1, 10% non-targeting (eGFP) gRNA, listed as wild type gRNA): 14%; percentage of edited cells ([4]; plasmid mixture 90% targeting galK1, 10% non-targeting (eGFP) gRNA, listed as wt sgRNA): 13.5%; percentage of edited cells ([4]; transformed exclusively with the targeting plasmid, listed as wild type gRNA): 89%; percentage of edited cells ([4]; transformed exclusively with the targeting plasmid, listed as wt sgRNA): 88.9%
6 | Cn1c(=O)c2[nH]cnc2n(C)c1=O [theophylline] | induced editing of the galK gene but not the xylA gene | – | – | – | – | – | – | – | – | – | Kd [8]: 0.4 µM; dependence of editing efficiency on theophylline concentration and induction time [9]: increased with the concentration of theophylline and induction time
